Target: human PD-L1 (Homo sapiens (Human), UniProt Q9NZQ7)
Experiment: T cell activation luciferase reporter cell culture system (T Cell Activation Assay)
Format: cell-based
Conditions: luciferase reporter assay; PD-L1 aAPC/CHO-K1 cells with PD-1 effector Jurkat T cells

Chain of human PD-L1 (Q9NZQ7 19-290): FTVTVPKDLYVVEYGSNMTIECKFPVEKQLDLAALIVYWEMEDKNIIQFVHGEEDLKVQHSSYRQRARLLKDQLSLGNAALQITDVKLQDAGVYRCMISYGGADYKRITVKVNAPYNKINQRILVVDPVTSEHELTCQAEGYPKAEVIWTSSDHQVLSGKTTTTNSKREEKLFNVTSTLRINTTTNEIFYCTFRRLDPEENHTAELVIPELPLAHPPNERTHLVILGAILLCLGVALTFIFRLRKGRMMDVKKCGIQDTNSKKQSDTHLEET

| EC50 [nM] | SMILES |
| --- | --- |
| 169 | COc1cc(-c2nccc(-c3cccc(NC(=O)c4ccc(CNC5CC6(COC6)C5)cn4)c3Cl)c2Cl)ccc1CNC1CC2(COC2)C1 (stereo not drawn) [Example 695, 5-(((2-Oxaspiro[3.3]heptan-6-yl)amino)methyl)-N-(3-(2-(4-(((2-oxaspiro[3.3]heptan-6-yl)amino)methyl)-3-methoxyphenyl)-3-chloropyridin-4-yl)-2-chlorophenyl)picolinamide] |
| 244 | CNCc1ccc(C(=O)Nc2cccc(-c3ccnc(-c4ccc(CNC)c(OC)c4)c3Cl)c2C)nc1 [Example 696, N-(3-(3-Chloro-2-(3-methoxy-4-((methylamino)methyl)phenyl)pyridin-4-yl)-2-methylphenyl)-5-((methylamino)methyl)picolinamide] |
| 51.5 | COc1nc(-c2cccc(-c3ccnc(-c4cc(OC)c5nc(CNCC6(O)CC6)nn5c4)c3Cl)c2Cl)ccc1CNC1CCN(C(C)=O)CC1 [Example 699, 1-(4-(((6-(2-chloro-3-(3-chloro-2-(2-((((1-hydroxycyclopropyl)methyl)amino)methyl)-8-methoxy-[1,2,4]triazolo[1,5-a]pyridin-6-yl)pyridin-4-yl)phenyl)-2-methoxypyridin-3-yl)methyl)amino)piperidin-1-yl)ethan-1-one] |
| 124 | COc1cc(-c2nccc(-c3cccc(NC(=O)c4ccc(CNCCO)cn4)c3C)c2Cl)ccc1CNC1CCN(C(C)=O)CC1 [Example 700, N-(3-(2-(4-(((1-Acetylpiperidin-4-yl)amino)methyl)-3-methoxyphenyl)-3-chloropyridin-4-yl)-2-methylphenyl)-5-(((2-hydroxyethyl)amino)methyl)picolinamide] |
| 410 | COc1cc(-c2nccc(-c3cccc(NC(=O)c4ccc(CN5CC6(COC6)C5)cn4)c3Cl)c2Cl)ccc1CN1CC2(COC2)C1 [Example 701, 5-((2-Oxa-6-azaspiro[3.3]heptan-6-yl)methyl)-N-(3-(2-(4-((2-oxa-6-azaspiro[3.3]heptan-6-yl)methyl)-3-methoxyphenyl)-3-chloropyridin-4-yl)-2-chlorophenyl)picolinamide] |
| 266 | COc1cc(-c2nccc(-c3cccc(NC(=O)c4ccc(CNCCCF)cn4)c3Cl)c2Cl)ccc1CNCCCF [Example 702, N-(2-Chloro-3-(3-chloro-2-(4-(((3-fluoropropyl)amino)methyl)-3-methoxyphenyl)pyridin-4-yl)phenyl)-5-(((3-fluoropropyl)amino)methyl)picolinamide] |
| ≥ 10000 | COc1nc(-c2ccnc(-c3cccc4c3CCC[C@@H]4Nc3nc(OC)c(CNC4(C(=O)O)CC4)cc3C(F)(F)F)c2Cl)ccc1CNC[C@@H]1CCC(=O)N1 [Example 704] |
| ≥ 10000 | COc1cc(-c2nccc(-c3cccc4c3CCC[C@@H]4Nc3nc(OC)c(CNC4(C(=O)O)CC4)cc3C(F)(F)F)c2Cl)ccc1CNC[C@@H]1CCC(=O)N1 [Example 705, 1-(((6-(((S)-5-(3-Chloro-2-(3-methoxy-4-(((((S)-5-oxopyrrolidin-2-yl)methyl)amino)methyl)phenyl)pyridin-4-yl)-1,2,3,4-tetrahydronaphthalen-1-yl)amino)-2-methoxy-5-(trifluoromethyl)pyridin-3-yl)methyl)amino)cyclopropane-1-carboxylic acid] |
| ≥ 10000 | COc1nc(-c2ccnc(-c3cccc4c3CCC[C@@H]4Nc3nc(OC)c(CNC[C@@H]4CCC(=O)N4)cc3C(F)(F)F)c2Cl)ccc1CNC[C@@H]1CCC(=O)N1 [Example 709, (S)-5-((((3′-Chloro-6-methoxy-2′-((S)-5-((6-methoxy-5-(((((S)-5-oxopyrrolidin-2-yl)methyl)amino)methyl)-3-(trifluoromethyl)pyridin-2-yl)amino)-5,6,7,8-tetrahydronaphthalen-1-yl)-[2,4′-bipyridin]-5-yl)methyl)amino)methyl)pyrrolidin-2-one] |
